Consider 5 molecules from patent US10508109B2 (priority 2015, dated 2019).

By IC50 is commonly meant the concentration needed to halve the response being measured.

Where two headings read alike, the source gives them in different places.

For one assay, the system named is HFL1. Kind of assay: Cell-based assay, anti-proliferative activity (Cell Counting Kit-8, 72 hours). The settings on record: Homo sapiens; HFL1 cells, Cell Counting Kit-8, 72 hours; read-out: IC50 (μM) HFL1. The method in brief: (§1)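 IC50 values reflect cell growth measured by Cell Counting Kit-8 following 72 hours of inhibitor exposure across a twofold dilution range up to 100 micro-M.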
On the technique in general: Tetrazolium dyes change colour on reduction, which living cells bring about.

In a further assay the test system is CCD-18Co. The assay is described as above. The note with it: Homo sapiens; CCD-18Co cells, Cell Counting Kit-8, 72 hours; read-out: IC50 (μM) CCD-18Co. In a few lines: as §1
For another assay, the system named is HCT-116. The assay is described as above. The settings on record: Homo sapiens; HCT-116 cells, Cell Counting Kit-8, 72 hours; read-out: IC50 (μM) HCT-116. The method in brief: as §1
Assay [1] deals with T1, SUV39H2 (Homo sapiens (Human), UniProt Q9H5I1). Kind of assay: biochemical.
T1 sequence (Q9H5I1 whole entry): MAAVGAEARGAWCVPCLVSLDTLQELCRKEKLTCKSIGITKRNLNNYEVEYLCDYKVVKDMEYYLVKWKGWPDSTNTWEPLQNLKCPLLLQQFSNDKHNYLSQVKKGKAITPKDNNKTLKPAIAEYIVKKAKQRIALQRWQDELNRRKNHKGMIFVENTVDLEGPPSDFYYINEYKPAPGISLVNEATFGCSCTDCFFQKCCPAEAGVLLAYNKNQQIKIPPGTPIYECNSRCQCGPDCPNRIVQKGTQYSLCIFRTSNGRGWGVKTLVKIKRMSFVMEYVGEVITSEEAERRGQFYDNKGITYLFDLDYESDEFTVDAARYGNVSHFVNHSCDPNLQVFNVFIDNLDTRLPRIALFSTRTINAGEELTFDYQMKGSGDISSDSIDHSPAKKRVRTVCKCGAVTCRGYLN
For assay [2], the target named is T1, SUV39H2. The note with it: read-out: IC50 (μM) Suv 39H2 assay; enzyme assay.
A further assay concerns A549. The assay is described as follows: Cell-based assay, anti-proliferative activity (Cell Counting Kit-8, 72 hours). The settings on record: Homo sapiens, A549 cells. The method in brief:
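IC50 values come from growth read-outs taken after the cells' exposure to each candidate inhibitor. Cells had been plated in 96-well microtiter plates beforehand.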

A further assay relates to PC14. The description is as above. The settings on record: Homo sapiens, PC-14; PC14 cells, Cell Counting Kit-8, 72 hours; read-out: IC50 (μM) PC14. In a few lines:
as §1

In assay [3] the target is T1, SUV39H2. Kind of assay: biochemical. In kind it is biochemical. The settings on record: 3H-SAM 100 nM, H3 Histone Peptide 350 nM, room temperature 3 hours. The method in brief: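 Human SUV39H2, at a lot-specific concentration set by specific activity, was incubated with test compounds for 3 h at room temperature, then stopped with streptavidin SPA beads (50 μg/well final).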

The mark [4] stands for this setting: Cell Counting Kit-8, 72 hours, read-out: IC50 (μM) A549.
Where [5] appears, read: 72 hours exposure, Cell Counting Kit-8, read-out: A549 IC50.

As for `COc1cc(OC)c(-c2cn3ccc(N4CCN(C(C)C)CC4)cc3n2)cc1Cl` [Example 100, 2-(5-chloro-2,4-dimethoxyphenyl)-7-(4-isopropylpiperazin-1-yl)imidazo-[1,2-a]pyridine], the IC50 is 3.2 µM with HFL1; 5.8 µM in the assay on CCD-18Co; 3.2 µM with HCT-116; 0.0154 µM on SUV39H2 [1]; 0.0136 µM at SUV39H2 [2]; 5.6 µM with A549 (setting [4]).
As to `CCCS(=O)(=O)NC1CCN(c2ccn3cc(-c4cc(Cl)c(OC)cc4OC)nc3n2)CC1` [Example 193, N-(1-(2-(5-chloro-2,4-dimethoxyphenyl)imidazo[1,2-a]pyrimidin-7-yl)-piperidin-4-yl)propane-1-sulfonamide], the concentration for half-maximal inhibition (IC50) in the assay with HFL1 came out at 10 µM; in the assay with CCD-18Co, 10 µM; in the assay on HCT-116 it was 10 µM; in the assay with PC14, 6.7 µM; against SUV39H2 [1] it was 0.0327 µM; in the assay with A549 (setting [4]), 10 µM.
Turning to `CNC1CCN(c2ccnc(N3CCN(c4ccn5cc(-c6cc(Cl)c(OC)cc6OC)nc5c4)CC3)n2)CC1` [Example 426, 1-(2-(4-(2-(5-chloro-2,4-dimethoxyphenyl)imidazo[1,2-a]pyridin-7-yl)piperazin-1-yl)pyrimidin-4-yl)-N-methylpiperidin-4-amine], the IC50 against SUV39H2 [3] is 0.0177 µM; in the assay on A549 (setting [5]), 0.67 µM.
For `COc1cc(OC)c(-c2cn3ccc(N4C[C@H](NCc5ccncc5)[C@@H](O)C4)cc3n2)cc1Cl` (relative stereo) [Example 439, trans-1-(2-(5-chloro-2,4-dimethoxyphenyl)imidazo[1,2-a]pyridin-7-yl)-4-((pyridin-4-ylmethyl)amino)pyrrolidin-3-ol], in that order: 0.00676 µM and 10 µM.
For `COc1cc(OC)c(-c2cn3ccc(N4CCN(c5cnc(N6CCC(N)CC6)nc5)CC4)cc3n2)cc1Cl` [Example 350, 1-(5-(4-(2-(5-chloro-2,4-dimethoxyphenyl)imidazo[1,2-a]pyridin-7-yl)piperazin-1-yl)pyrimidin-2-yl)piperidin-4-amine], in that order: 0.00735 µM and 0.68 µM.
